Like-named read-outs stand apart in the source and are kept apart here.
Key:
[1] = target: T1, 5-HT2C (h) (Homo sapiens, UniProt P28335); assay: Competition assay to measure binding affinity at 5-HT2C receptor; conditions: test ligand 10 μM; [125I](±)DOI 0.1 nM
T1 construct: host or cells: HEK-293 cells
T1 sequence (P28335 33-458): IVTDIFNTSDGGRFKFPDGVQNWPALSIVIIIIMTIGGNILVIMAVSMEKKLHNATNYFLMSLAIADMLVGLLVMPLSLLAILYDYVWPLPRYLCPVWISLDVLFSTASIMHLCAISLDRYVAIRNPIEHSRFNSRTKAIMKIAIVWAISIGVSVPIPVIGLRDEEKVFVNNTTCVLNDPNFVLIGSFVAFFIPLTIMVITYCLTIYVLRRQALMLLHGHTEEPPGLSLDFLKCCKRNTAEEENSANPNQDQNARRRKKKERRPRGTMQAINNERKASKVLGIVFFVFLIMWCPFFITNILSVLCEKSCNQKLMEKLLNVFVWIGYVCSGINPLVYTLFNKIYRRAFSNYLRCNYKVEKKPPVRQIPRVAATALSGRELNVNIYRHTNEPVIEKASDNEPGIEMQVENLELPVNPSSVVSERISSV

[2] = target: T2, 5-HT7 (h) (Homo sapiens, UniProt P34969); assay: Competition assay to measure binding affinity at 5-HT7 receptor; conditions: test ligand 10 μM; [3H]LSD 4 nM
T2 construct: host or cells: HEK-293 cells

[3] = target: T3, 5-HT1D (r) (Rattus norvegicus, UniProt P28565); assay: Competition assay to measure binding affinity at 5-HT1D receptor; conditions: test ligand 10 μM; [3H]serotonin 1 nM
T3 construct: host or cells: CHO cells

[4] = target: T4, D3 (h) (Homo sapiens, UniProt P35462); assay: Competition assay to measure binding affinity at D3 receptor; conditions: test ligand 10 μM; [3H]methylspiperone […]
T4 construct: host or cells: CHO cells

[5] = target: T5, alpha2A (h) (Homo sapiens, UniProt P08913); assay: Competition assay to measure binding affinity at alpha2A receptor; conditions: test ligand 10 μM; [3H]RX 821002 1 nM; read-out: α-2A, percent of control-specific binding
T5 construct: host or cells: CHO cells
T5 sequence (P08913 1-465): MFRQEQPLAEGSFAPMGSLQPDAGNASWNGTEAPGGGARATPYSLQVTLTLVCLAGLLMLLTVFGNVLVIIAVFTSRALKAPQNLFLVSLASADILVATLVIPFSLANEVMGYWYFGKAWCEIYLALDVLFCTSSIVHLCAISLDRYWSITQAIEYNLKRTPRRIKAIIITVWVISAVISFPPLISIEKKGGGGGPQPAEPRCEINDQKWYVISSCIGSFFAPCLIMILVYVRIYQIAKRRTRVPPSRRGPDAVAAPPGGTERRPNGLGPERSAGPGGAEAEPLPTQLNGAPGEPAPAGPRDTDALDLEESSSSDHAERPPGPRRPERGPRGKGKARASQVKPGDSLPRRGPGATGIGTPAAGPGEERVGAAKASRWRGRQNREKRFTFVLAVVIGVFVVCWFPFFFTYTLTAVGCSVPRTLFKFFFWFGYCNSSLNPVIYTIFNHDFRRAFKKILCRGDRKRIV

[6] = target: T6, human serotonin transporter (SERT) (Homo sapiens, UniProt P31645); assay: biochemical; type: binding
T6 construct: purchased PerkinElmer RBHSTM400UA

[7] = target: T7, NET (h) (Homo sapiens, UniProt P23975); assay: Competition assay to measure binding affinity at norepinephrine transporter (NET); conditions: test ligand 10 μM; [3H]nisoxetine 1 nM
T7 construct: host or cells: CHO cells

[8] = target: T8, 5-HT1A receptor (Homo sapiens, UniProt P08908); assay: 5-HT1A receptor radioligand competition assay (SPA); type: binding
T8 construct: purchased Perkin Elmer 6110501400UA
T8 sequence (P08908 1-422): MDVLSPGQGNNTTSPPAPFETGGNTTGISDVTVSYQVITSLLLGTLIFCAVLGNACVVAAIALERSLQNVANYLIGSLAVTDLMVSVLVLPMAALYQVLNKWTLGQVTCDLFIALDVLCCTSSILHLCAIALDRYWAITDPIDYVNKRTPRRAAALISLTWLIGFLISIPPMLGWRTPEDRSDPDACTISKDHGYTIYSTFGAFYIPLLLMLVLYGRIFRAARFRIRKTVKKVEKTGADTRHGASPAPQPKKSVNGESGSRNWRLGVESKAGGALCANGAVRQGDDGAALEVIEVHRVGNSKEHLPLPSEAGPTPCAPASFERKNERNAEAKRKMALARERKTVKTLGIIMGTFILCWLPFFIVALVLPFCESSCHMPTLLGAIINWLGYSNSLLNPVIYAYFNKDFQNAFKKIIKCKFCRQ

[9] = target: T9, 5-HT1B (h) (Homo sapiens, UniProt P28222); assay: Competition assay to measure binding affinity at 5-HT1B receptor; conditions: test ligand 10 μM; [3H]GR125743 1 nM
T9 construct: host or cells: Chem-1 (RBL) cells

[10] = target: T10, MT1 (ML1A) (h) (Homo sapiens, UniProt P48039); assay: Competition assay to measure binding affinity at MT1 receptor; conditions: test ligand 10 μM; [125I]2-iodomelatonin 0.01 nM
T10 construct: host or cells: CHO cells

[11] = target: T11, D2 (h) (Homo sapiens, UniProt P14416); assay: Competition assay to measure binding affinity at D2L receptor; conditions: test ligand 10 μM; [3H]methylspiperone 0.3 nM
T11 construct: host or cells: HEK-293 cells

[12] = target: T12, 5-HT2B (h) (Homo sapiens, UniProt P41595); assay: Competition assay to measure binding affinity at 5-HT2B receptor; conditions: test ligand 10 μM; [3H]mesulergine 2 nM
T12 construct: host or cells: CHO cells

[13] = target: 5-HT2A receptor (Homo sapiens, UniProt P28223); assay: 5-HT2A receptor radioligand competition assay (SPA)
[14] = target: T13, DAT (h) (Homo sapiens, UniProt Q01959); assay: Competition assay to measure binding affinity at dopamine transporter (DAT); conditions: test ligand 10 μM; [3H]BTCP 4 nM
T13 construct: host or cells: CHO cells

[15] = target: T8, 5-HT1A receptor; assay: Functional 5-HT1A receptor cAMP assay in CHO-K1/5-HT1A/Gα15 cells; type: cell-based; conditions: +5-HT1A cells, 4 μM forskolin, FIGS. 37B-37H

T10 sequence (P48039 whole entry): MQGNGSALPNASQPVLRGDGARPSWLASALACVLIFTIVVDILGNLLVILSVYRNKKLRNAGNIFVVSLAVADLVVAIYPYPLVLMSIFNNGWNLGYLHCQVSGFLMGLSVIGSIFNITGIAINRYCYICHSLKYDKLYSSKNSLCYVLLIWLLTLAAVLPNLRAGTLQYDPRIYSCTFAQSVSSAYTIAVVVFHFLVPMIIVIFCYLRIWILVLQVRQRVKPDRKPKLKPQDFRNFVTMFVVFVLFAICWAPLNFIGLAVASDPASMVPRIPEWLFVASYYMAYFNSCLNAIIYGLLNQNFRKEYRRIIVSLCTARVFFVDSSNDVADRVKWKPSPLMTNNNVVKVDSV
T11 sequence (P14416 whole entry): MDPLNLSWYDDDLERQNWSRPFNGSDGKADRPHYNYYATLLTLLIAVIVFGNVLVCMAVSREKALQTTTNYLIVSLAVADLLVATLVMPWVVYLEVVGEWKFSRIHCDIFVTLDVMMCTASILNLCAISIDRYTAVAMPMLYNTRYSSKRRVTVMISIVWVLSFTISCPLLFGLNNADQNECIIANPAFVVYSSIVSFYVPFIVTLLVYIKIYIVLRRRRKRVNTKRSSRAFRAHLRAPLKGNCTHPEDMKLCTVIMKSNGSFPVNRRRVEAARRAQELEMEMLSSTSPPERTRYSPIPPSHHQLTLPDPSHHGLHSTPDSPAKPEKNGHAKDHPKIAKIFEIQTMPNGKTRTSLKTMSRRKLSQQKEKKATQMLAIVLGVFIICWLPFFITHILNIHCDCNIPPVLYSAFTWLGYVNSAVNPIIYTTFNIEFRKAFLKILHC
T2 sequence (P34969 whole entry): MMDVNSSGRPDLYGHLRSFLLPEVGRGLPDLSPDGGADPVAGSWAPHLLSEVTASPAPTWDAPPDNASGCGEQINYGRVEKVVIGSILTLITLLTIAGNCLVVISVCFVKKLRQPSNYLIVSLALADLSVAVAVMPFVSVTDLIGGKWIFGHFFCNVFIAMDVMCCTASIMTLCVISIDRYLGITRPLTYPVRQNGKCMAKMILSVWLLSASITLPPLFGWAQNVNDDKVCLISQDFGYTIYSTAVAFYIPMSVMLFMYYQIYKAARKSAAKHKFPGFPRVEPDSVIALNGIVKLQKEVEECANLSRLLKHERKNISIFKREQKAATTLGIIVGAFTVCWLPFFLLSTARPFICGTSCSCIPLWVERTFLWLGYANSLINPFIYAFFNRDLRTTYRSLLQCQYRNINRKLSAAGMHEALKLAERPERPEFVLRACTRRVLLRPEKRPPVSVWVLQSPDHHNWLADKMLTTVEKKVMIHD
T9 sequence (P28222 whole entry): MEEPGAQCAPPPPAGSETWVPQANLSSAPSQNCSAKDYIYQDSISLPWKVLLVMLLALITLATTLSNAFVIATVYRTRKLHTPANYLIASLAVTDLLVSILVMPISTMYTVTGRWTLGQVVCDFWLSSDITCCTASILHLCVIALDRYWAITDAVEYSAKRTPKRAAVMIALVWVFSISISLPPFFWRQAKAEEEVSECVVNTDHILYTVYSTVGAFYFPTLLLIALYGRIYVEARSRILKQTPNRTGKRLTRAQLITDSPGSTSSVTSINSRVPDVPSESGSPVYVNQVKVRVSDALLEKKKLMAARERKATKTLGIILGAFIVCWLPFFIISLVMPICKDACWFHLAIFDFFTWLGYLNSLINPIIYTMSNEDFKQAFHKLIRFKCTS
T12 sequence (P41595 whole entry): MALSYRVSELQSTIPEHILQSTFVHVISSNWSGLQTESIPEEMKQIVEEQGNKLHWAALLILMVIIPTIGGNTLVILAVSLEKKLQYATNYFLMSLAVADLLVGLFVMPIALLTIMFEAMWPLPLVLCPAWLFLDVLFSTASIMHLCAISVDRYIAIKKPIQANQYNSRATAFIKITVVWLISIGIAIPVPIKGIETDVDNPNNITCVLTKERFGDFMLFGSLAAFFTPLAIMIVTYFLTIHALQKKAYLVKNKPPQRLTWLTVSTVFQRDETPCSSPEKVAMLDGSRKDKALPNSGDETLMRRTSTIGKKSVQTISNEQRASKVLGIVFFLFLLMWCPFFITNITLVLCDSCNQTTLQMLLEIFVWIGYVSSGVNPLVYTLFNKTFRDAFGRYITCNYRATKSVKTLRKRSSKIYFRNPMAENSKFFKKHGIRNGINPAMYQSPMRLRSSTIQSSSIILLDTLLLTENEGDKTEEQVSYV
T4 sequence (P35462 whole entry): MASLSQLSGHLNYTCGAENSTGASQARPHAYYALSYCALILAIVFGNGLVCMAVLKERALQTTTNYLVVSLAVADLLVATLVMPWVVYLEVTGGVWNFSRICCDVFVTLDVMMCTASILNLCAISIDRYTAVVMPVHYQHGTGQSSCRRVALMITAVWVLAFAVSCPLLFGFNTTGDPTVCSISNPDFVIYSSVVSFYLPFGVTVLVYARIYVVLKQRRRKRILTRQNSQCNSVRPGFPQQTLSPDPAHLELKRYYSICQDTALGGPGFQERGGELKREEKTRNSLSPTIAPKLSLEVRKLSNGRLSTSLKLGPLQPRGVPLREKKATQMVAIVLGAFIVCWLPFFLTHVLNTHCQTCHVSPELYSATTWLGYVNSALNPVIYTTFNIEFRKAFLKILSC
5-HT2A receptor, sequence (P28223 whole entry): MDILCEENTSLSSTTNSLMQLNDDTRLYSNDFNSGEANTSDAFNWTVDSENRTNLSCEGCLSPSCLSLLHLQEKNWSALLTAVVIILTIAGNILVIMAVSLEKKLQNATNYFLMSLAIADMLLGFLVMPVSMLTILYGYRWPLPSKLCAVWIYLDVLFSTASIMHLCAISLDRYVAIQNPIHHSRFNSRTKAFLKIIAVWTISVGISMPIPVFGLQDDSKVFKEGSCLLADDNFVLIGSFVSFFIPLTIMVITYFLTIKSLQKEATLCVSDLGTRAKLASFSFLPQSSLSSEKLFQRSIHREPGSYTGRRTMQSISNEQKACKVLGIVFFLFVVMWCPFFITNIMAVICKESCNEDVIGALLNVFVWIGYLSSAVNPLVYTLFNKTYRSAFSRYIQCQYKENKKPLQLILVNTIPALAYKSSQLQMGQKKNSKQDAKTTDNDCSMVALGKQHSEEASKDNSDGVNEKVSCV
T13 sequence (Q01959 whole entry): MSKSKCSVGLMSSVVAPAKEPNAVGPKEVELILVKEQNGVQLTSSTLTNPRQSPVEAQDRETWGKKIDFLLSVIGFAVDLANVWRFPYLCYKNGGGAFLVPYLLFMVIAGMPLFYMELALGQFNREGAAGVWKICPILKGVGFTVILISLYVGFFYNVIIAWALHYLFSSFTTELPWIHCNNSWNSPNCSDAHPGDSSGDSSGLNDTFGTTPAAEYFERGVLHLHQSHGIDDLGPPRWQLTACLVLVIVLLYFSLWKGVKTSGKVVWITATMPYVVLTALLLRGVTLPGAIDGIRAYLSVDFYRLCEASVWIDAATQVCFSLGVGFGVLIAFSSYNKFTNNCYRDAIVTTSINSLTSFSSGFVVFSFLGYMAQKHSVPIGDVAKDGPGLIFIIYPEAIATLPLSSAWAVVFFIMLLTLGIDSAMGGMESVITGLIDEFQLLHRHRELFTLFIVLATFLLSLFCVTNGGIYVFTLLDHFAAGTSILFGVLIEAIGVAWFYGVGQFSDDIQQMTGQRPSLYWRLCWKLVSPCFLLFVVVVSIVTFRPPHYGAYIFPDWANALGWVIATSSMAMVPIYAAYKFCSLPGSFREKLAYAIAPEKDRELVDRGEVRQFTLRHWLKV
T7 sequence (P23975 whole entry): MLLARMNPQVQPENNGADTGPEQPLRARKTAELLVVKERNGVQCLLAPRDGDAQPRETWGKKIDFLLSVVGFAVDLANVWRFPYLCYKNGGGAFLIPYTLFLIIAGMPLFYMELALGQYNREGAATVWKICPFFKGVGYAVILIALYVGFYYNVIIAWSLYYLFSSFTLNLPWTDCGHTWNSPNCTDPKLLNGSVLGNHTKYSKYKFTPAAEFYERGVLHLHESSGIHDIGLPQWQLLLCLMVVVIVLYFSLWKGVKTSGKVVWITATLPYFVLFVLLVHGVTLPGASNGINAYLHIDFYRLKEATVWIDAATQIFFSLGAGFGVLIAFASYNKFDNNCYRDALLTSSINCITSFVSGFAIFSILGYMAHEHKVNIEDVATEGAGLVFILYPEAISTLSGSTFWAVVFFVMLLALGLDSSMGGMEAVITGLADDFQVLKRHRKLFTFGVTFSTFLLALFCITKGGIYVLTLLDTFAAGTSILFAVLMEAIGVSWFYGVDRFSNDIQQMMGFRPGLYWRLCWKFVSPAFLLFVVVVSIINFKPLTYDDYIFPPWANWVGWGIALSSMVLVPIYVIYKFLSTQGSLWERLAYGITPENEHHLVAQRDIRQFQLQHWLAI
T6 sequence (P31645 whole entry): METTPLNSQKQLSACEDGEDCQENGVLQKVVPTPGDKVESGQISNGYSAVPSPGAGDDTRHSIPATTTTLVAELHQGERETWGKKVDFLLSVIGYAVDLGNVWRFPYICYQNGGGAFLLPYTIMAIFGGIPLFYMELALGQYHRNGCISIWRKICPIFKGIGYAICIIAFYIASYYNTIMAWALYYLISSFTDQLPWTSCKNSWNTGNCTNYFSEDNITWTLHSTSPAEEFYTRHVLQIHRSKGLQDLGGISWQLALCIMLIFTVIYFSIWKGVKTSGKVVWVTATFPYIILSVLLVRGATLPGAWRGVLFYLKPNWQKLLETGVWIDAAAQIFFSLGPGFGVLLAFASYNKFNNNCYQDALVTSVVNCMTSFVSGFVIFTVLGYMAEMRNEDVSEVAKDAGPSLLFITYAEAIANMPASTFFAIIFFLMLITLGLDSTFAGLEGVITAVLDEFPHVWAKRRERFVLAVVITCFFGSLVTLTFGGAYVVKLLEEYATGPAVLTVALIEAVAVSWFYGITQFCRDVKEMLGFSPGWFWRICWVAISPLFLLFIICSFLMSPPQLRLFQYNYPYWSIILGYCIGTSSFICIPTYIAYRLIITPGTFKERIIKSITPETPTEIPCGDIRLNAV

Structure (SMILES): CC(Cc1ccc2c(c1)OCO2)N1CCC1 (centres unmarked) [A(II)]
- HT2C, percent of control-specific binding [1]: 94%
- HT7, percent of control-specific binding [2]: 59%
- HT1D, percent of control-specific binding [3]: 43%
- D3, percent of control-specific binding [4]: 56%
- inhibition at 10 µM [5]: 60%
- Ki [6]: 1.87 µM
- NET, percent of control-specific binding [7]: 77%
- Ki [8]: 0.926 µM
- HT1B, percent of control-specific binding [9]: 17%
- MT1, percent of control-specific binding [10]: 3%
- D2, percent of control-specific binding [11]: 13%
- HT2B, percent of control-specific binding [12]: 84%
- Ki [13]: 13 µM
- DAT, percent of control-specific binding [14]: 86%

Structure (SMILES): COc1cc2c(cc1CNC(C)Cc1ccc3c(c1)OCCO3)OCO2 (centres unmarked) [A(X)]
- HT2C, percent of control-specific binding [1]: 63%
- HT7, percent of control-specific binding [2]: 59%
- HT1D, percent of control-specific binding [3]: 10%
- D3, percent of control-specific binding [4]: 25%
- inhibition at 10 µM [5]: 81%
- Ki [6]: 2.36 µM
- NET, percent of control-specific binding [7]: 49%
- Ki [8]: 1.1 µM
- HT1B, percent of control-specific binding [9]: 0%
- MT1, percent of control-specific binding [10]: 15%
- D2, percent of control-specific binding [11]: 13%
- HT2B, percent of control-specific binding [12]: 89%
- Ki [13]: 12 µM
- DAT, percent of control-specific binding [14]: 84%

Structure (SMILES): CC(Cc1ccc2c(c1)OCCO2)NCc1ccccc1 (centres unmarked) [A(XXIII)]
- HT2C, percent of control-specific binding [1]: 42%
- HT7, percent of control-specific binding [2]: 34%
- HT1D, percent of control-specific binding [3]: 29%
- D3, percent of control-specific binding [4]: 38%
- inhibition at 10 µM [5]: 60%
- Ki [6]: 2.75 µM
- NET, percent of control-specific binding [7]: 88%
- Ki [8]: 5.58 µM
- HT1B, percent of control-specific binding [9]: 0%
- MT1, percent of control-specific binding [10]: 3%
- D2, percent of control-specific binding [11]: 9%
- HT2B, percent of control-specific binding [12]: 66%
- Ki [13]: 70 µM
- DAT, percent of control-specific binding [14]: 91%

Structure (SMILES): CN(C)CCc1c[nH]c2cccc(O)c12 [psilocin]
- 5-HT1A receptor engagement (change in cAMP levels), in words [15]: reduction in cAMP levels

Structure (SMILES): CC(Cc1ccc2c(c1)OCCO2)NCc1ccc2c(c1)OCCO2 (centres unmarked) [A(XIII)]
- HT2C, percent of control-specific binding [1]: 34%
- HT7, percent of control-specific binding [2]: 52%
- HT1D, percent of control-specific binding [3]: 38%
- D3, percent of control-specific binding [4]: 54%
- inhibition at 10 µM [5]: 77%
- Ki [6]: 2.91 µM
- NET, percent of control-specific binding [7]: 50%
- Ki [8]: 1.5 µM
- HT1B, percent of control-specific binding [9]: 11%
- MT1, percent of control-specific binding [10]: 12%
- D2, percent of control-specific binding [11]: 28%
- HT2B, percent of control-specific binding [12]: 85%
- Ki [13]: 102 µM
- DAT, percent of control-specific binding [14]: 90%

Structure (SMILES): COc1cc2c(cc1CC(=O)N1CCCC1)OCO2 [A(XXI)]
- HT2C, percent of control-specific binding [1]: 32%
- HT7, percent of control-specific binding [2]: 20%
- HT1D, percent of control-specific binding [3]: 14%
- D3, percent of control-specific binding [4]: 7%
- inhibition at 10 µM [5]: 0%
- Ki [6]: 847 µM
- NET, percent of control-specific binding [7]: 0%
- Ki ([8]; competition with 0.5 nM 8-hydroxy-DPAT [3H], test compound 3 nM to 1 mM, read-out: 5-HT1A, Ki): 71.3 µM
- HT1B, percent of control-specific binding [9]: 0%
- MT1, percent of control-specific binding [10]: 7%
- D2, percent of control-specific binding [11]: 0%
- HT2B, percent of control-specific binding [12]: 33%
- Ki [13]: 338 µM
- DAT, percent of control-specific binding [14]: 29%

Reference: US12428408B2, “Fused heterocyclic mescaline derivatives” (Enveric Biosciences Canada Inc., priority 2022, dated 2025)
